Experimental findings from PubChem BioAssay (NCI) are described below.

Test systems include UACC-62 melanoma; SF-295 CNS; EKVX NSCLC; COLO 205 colon; HCT-116 colon; PC-3 prostate; SW-620 colon; LOX IMVI melanoma; MOLT-4 leukemia; NCI/ADR-RES ovarian.
Common to all, as to test: inhibition of tumour cell growth, NCI panel, 48 h

“And” between values parts separate entries of the source, which are not always exact repeats. Identical values can stand only once.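 Assay format: 96-well plates, 48-hour exposure. The concentration for 50% growth inhibition is given as GI50. The concentration for full growth arrest is given as TGI.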 A value given as a limit tells only on which side of the number the result lay.

As for `Cc1cn2c(/C=C3\C(=O)Nc4ccc(O)cc43)c(-c3ccc(Cl)cc3)nc2s1`, the GI50 in the assay on UACC-62 melanoma is 9.4 µM; in the assay on SF-295 CNS, 15.2 µM; in the assay with EKVX NSCLC, 14.9 µM; in the assay on COLO 205 colon it was 20.8 µM; in the assay with HCT-116 colon, 15.6 µM; with PC-3 prostate it was 22.2 µM. Further, the GI50 was 35.6 µM with SW-620 colon, 21.3 µM with LOX IMVI melanoma, 9.97 µM in the assay on MOLT-4 leukemia and 21.5 µM in the assay with NCI/ADR-RES ovarian. Moreover, the TGI with UACC-62 melanoma is 56.2 µM; in the assay with SF-295 CNS, 41.4 µM; in the assay on EKVX NSCLC, 60.6 µM; in the assay on COLO 205 colon it was 81.1 µM; with HCT-116 colon, 42.5 µM; with PC-3 prostate it was above 100 µM. Also, the TGI was above 100 µM in the assay on SW-620 colon, above 100 µM in the assay with LOX IMVI melanoma, 27.1 µM with MOLT-4 leukemia and above 100 µM in the assay on NCI/ADR-RES ovarian.
Take `O=C(c1c(F)ccc(NS(=O)(=O)N2CC[C@@H](F)C2)c1F)c1c[nH]c2ncc(-c3cnc(C4CC4)nc3)cc12`: the GI50 with UACC-62 melanoma is 0.0033 µM and < 0.01 µM; with SF-295 CNS it was 5.87 µM and 4.71 µM; in the assay with EKVX NSCLC, > 10 µM and 9.15 µM; in the assay on COLO 205 colon, 0.00482 µM and < 0.01 µM; in the assay on HCT-116 colon, 4.52 µM and 4.11 µM; in the assay on PC-3 prostate it was 7.03 µM and 6.82 µM. Moreover, the GI50 in the assay on SW-620 colon is > 7.76 µM and 10.9 µM; in the assay on LOX IMVI melanoma it was 0.305 µM and 0.342 µM; in the assay with MOLT-4 leukemia it was 6.66 µM and 5.12 µM; in the assay with NCI/ADR-RES ovarian, > 10 µM and 25.2 µM. The TGI with UACC-62 melanoma was 0.13 µM and 0.123 µM; in the assay with SF-295 CNS, > 10 µM and 33.5 µM; in the assay on EKVX NSCLC, > 10 µM and 51.5 µM; with COLO 205 colon, > 7.6 µM and 12.2 µM; in the assay on HCT-116 colon, > 10 µM and 41.8 µM; in the assay with PC-3 prostate, > 10 µM and 70 µM. The TGI in the assay with SW-620 colon is > 10 µM and 35 µM; in the assay on LOX IMVI melanoma it was > 10 µM and 17.2 µM; with MOLT-4 leukemia it was > 10 µM and 35.5 µM; with NCI/ADR-RES ovarian it was above 100 µM.
As to `Cc1ccc(/C=C/c2c(C(=O)/C=C/c3ccc(C(F)(F)F)cc3)c(C)nc3ccccc23)cc1`, the GI50 was 1.55 µM in the assay on UACC-62 melanoma; 1.74 µM in the assay with SF-295 CNS; 1.53 µM in the assay with EKVX NSCLC; 2.21 µM in the assay with COLO 205 colon; 0.496 µM with HCT-116 colon; 1.64 µM in the assay with PC-3 prostate. Besides, the GI50 with SW-620 colon was 1.29 µM; in the assay with LOX IMVI melanoma, 1.12 µM; in the assay on MOLT-4 leukemia, 0.625 µM; with NCI/ADR-RES ovarian, 2.22 µM. For the same compound, the TGI was 3.02 µM with UACC-62 melanoma; 3.14 µM with SF-295 CNS; 3.36 µM in the assay on EKVX NSCLC; 5.29 µM in the assay with COLO 205 colon; 2.09 µM in the assay on HCT-116 colon; 3.68 µM with PC-3 prostate. Moreover, the TGI with SW-620 colon was 4.38 µM; in the assay on LOX IMVI melanoma, 2.33 µM; in the assay on MOLT-4 leukemia, above 100 µM; in the assay with NCI/ADR-RES ovarian, 5.92 µM.
In the case of `NS(=O)(=O)c1ccc(N(/C=C/C(=O)C(F)(F)F)CC(=O)c2ccc(Cl)cc2)cc1`, the GI50 is 27.7 µM in the assay with UACC-62 melanoma; 26.2 µM in the assay on SF-295 CNS; 54.2 µM with EKVX NSCLC; 32.2 µM in the assay with COLO 205 colon; 18.7 µM in the assay on HCT-116 colon; 26.4 µM in the assay with PC-3 prostate. Moreover, the GI50 is 57 µM in the assay on SW-620 colon, 31.2 µM with LOX IMVI melanoma, 32.9 µM in the assay with MOLT-4 leukemia and 47.6 µM in the assay on NCI/ADR-RES ovarian. The TGI was 91.6 µM with UACC-62 melanoma; 74.4 µM in the assay with SF-295 CNS; above 100 µM with EKVX NSCLC; above 100 µM in the assay with COLO 205 colon; 40 µM in the assay with HCT-116 colon; 84.1 µM in the assay on PC-3 prostate. The TGI with SW-620 colon is above 100 µM; in the assay on LOX IMVI melanoma, 98.9 µM; in the assay on MOLT-4 leukemia, 89.9 µM; with NCI/ADR-RES ovarian, above 100 µM.
Take `COc1ccc2[nH]cc(-c3nc(-c4c[nH]c5ncccc45)cs3)c2c1`: the GI50 in the assay with UACC-62 melanoma is 3.66 µM; in the assay on SF-295 CNS, 2.66 µM; with EKVX NSCLC, 5.79 µM; in the assay on COLO 205 colon, 0.661 µM; in the assay on HCT-116 colon it was 2.9 µM; in the assay on PC-3 prostate it was 4.33 µM. Also, the GI50 in the assay on SW-620 colon is 3.46 µM; with LOX IMVI melanoma it was 2.83 µM; with MOLT-4 leukemia it was 3.13 µM; with NCI/ADR-RES ovarian, 3.75 µM. For the same compound, the TGI was above 100 µM in the assay with UACC-62 melanoma; 6.87 µM in the assay on SF-295 CNS; above 100 µM in the assay with EKVX NSCLC; 3.88 µM in the assay on COLO 205 colon; 21 µM in the assay on HCT-116 colon; above 100 µM with PC-3 prostate. Moreover, the TGI with SW-620 colon, with LOX IMVI melanoma, in the assay with MOLT-4 leukemia and in the assay on NCI/ADR-RES ovarian was above 100 µM each time.
As for `C[C@H]1Oc2cc(cnc2N)-c2c(nn(C)c2C#N)CN(C)C(=O)c2ccc(F)cc21`, the GI50 in the assay with UACC-62 melanoma was 22.4 µM; with SF-295 CNS, 47.9 µM; with EKVX NSCLC it was 16 µM; with COLO 205 colon, 5.24 µM; with HCT-116 colon, 22.9 µM; in the assay on PC-3 prostate it was above 100 µM. Also, the GI50 in the assay with SW-620 colon is 35.6 µM; with LOX IMVI melanoma it was 40.5 µM; with MOLT-4 leukemia it was above 93.7 µM; in the assay on NCI/ADR-RES ovarian, 65.5 µM. The TGI in the assay on UACC-62 melanoma was above 100 µM; in the assay on SF-295 CNS it was above 100 µM; in the assay on EKVX NSCLC it was above 100 µM; in the assay with COLO 205 colon it was 51.4 µM; with HCT-116 colon it was above 100 µM; in the assay on PC-3 prostate, above 100 µM. Also, the TGI in the assay with SW-620 colon, with LOX IMVI melanoma, with MOLT-4 leukemia and in the assay with NCI/ADR-RES ovarian was above 100 µM in each case.
For `CC1(C)OCCn2c1nc1c(N3CCOCC3)nc(-c3cnc(N)nc3)nc12`, the GI50 in the assay on UACC-62 melanoma was 0.185 µM; in the assay on SF-295 CNS, 0.213 µM; in the assay on EKVX NSCLC it was 0.16 µM; with COLO 205 colon it was 0.217 µM; in the assay on HCT-116 colon, 0.337 µM; with PC-3 prostate, 0.318 µM. Besides, the GI50 with SW-620 colon was 0.399 µM; in the assay with LOX IMVI melanoma it was 0.265 µM; with MOLT-4 leukemia, 0.33 µM; in the assay with NCI/ADR-RES ovarian, 0.508 µM. Further, the TGI was 1.42 µM with UACC-62 melanoma; 1.92 µM in the assay on SF-295 CNS; 2.64 µM in the assay on EKVX NSCLC; 5.95 µM in the assay on COLO 205 colon; above 100 µM with HCT-116 colon; above 68.6 µM in the assay on PC-3 prostate. Further, the TGI in the assay on SW-620 colon is above 100 µM; with LOX IMVI melanoma, above 27.4 µM; with MOLT-4 leukemia, above 100 µM; with NCI/ADR-RES ovarian, above 100 µM.
